# Source: PMC6155027, “Mechanistic insights into the host-microbe interaction and pathogen exclusion mediated by the Mucus-binding protein of Lactobacillus plantarum” (Scientific Reports, 2018)
# Target: T1, Mubs5s6 (Lactiplantibacillus plantarum, UniProt F9UP14)
# T1 construct: gene lp_1643; last two (fifth and sixth) C-terminal Mub domains with spacers of the about 2200-residue Lp_1643 protein; 366 residues, about 40 kDa; expressed in E. coli as MBP fusion (82 kDa), MBP tag removable with Factor Xa
# T1 sequence (F9UP14 entry or part of it): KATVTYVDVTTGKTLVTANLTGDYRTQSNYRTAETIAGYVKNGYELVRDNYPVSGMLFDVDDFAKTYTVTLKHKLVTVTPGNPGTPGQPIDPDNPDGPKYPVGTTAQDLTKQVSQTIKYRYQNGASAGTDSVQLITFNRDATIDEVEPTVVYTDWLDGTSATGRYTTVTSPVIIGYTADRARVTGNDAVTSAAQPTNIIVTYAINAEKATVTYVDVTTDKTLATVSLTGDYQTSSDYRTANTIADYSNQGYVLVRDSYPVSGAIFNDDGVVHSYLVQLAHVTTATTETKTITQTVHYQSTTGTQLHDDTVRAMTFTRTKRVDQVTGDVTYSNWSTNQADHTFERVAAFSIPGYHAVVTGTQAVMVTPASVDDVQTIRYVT
# Assay: biochemical assay (details in supplement)
# Assay type: binding
# Details: site predicted by COACH (Asn42, Gly43, Asn224, Thr227, Asn228, Gln229); assay conditions only in supplement
smiles,measurement,value
OC[C@H]1OC(O)[C@H](O)[C@@H](O)[C@@H]1O (stereo partly shown) [glucose],biochemical assay (details in supplement),We could also confirm the binding of calcium and glucose by Atomic Absorption Spectroscopy and biochemical assay
